A short description of data set [1]: Assay (III) ThT fibrillation assay for physical stability. The format is physicochemical. The text has this:
Assay (III)—ThT Fibrillation Assays for the Assessment of Physical Stability of Protein Formulations Low physical stability of a polypeptide may lead to amyloid fibril formation, which is observed as well-ordered, thread-like macromolecular structures in the sample eventually resulting in gel formation. This has traditionally been measured by visual inspection of the sample. However, that kind of measurement is very subjective and depending on the observer. Therefore, the application of a small molecule indicator probe is much more advantageous. Thioflavin T (ThT) is such a probe and has a distinct fluorescence signature when binding to fibrils [Naiki et al. (1989) Anal. […] LeVine (1999) Methods. Enzymol. […], 274-284]. The time course for fibril formation can be described by a sigmoidal curve with the following expression [Nielsen et al. (2001) Biochemistry 40, 6036-6046]: […] Here, F is the ThT fluorescence at the time t. The constant t0 is the time needed to reach 50% of maximum fluorescence. […] Incubation and Fluorescence Measurement Incubation at given temperature, shaking and measurement of the ThT fluorescence emission were done in a Fluoroskan Ascent FL fluorescence platereader or Varioskan platereader (Thermo Labsystems). […] Fluorescence measurement was done using excitation through a 444 nm filter and measurement of emission through a 485 nm filter. […] The plate was measured every 20 minutes for a desired period of time. […] However, since full sigmodial curves in this case are not always achieved during the measurement time, the degree of fibrillation is expressed as ThT fluorescence tabulated as the mean of the samples and shown with the standard deviation at various time points. Measurement of Initial and Final Concentrations The polypeptide concentration in each of the tested formulations were measured both before application in the ThT fibrillation assay (“Initial”) and after completion of the ThT fibrillation (“After ThT assay”). Concentrations were determined by reverse HPLC methods using a pramlintide standard as a reference. […]

The target of data set [2] is T1, human calcitonin receptor (Homo sapiens, UniProt P30988).
T1 construct: expressed in transfected cells
T1 sequence (P30988 25-474): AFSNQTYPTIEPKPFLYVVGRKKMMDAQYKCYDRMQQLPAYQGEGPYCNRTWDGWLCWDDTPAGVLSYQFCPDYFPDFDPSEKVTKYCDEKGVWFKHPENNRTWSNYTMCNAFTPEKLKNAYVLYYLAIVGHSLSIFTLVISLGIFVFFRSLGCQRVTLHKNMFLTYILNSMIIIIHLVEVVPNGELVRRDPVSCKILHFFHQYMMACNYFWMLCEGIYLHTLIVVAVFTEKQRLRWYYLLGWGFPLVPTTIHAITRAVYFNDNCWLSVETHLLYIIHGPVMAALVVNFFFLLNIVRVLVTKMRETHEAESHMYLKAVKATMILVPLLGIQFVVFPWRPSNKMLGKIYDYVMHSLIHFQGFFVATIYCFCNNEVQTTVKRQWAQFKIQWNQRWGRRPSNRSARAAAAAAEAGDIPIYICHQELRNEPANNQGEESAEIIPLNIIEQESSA
As to the kind of experiment: Assay (II)a functional assay, human calcitonin receptor (CRE luciferase, BHK cells).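 Further: luminescence from a CRE-driven luciferase reporter, read by single photon counting after cells were exposed to test samples for 3 h at 37 °C under 5% CO2.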 The conditions noted are these: read-out: hCTR funct. EC50. The class given is cell-based.

In data set [3] the target is T1, human calcitonin receptor. As to the kind of experiment: Assay (VII) binding to the human calcitonin receptor (SPA, 125I-Calcitonin).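 Further: cell membranes coupled to SPA beads, competitive displacement read by scintillation counting, IC50 derived from a one-site competition fit as a measure of receptor affinity.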 As to conditions: read-out: hCTR bind IC50.
The target in data set [4] is T2, human amylin receptor (amylin 3(a) receptor: human calcitonin receptor + RAMP-3) (Homo sapiens, UniProt O60896+P30988).
T2 construct: expressed in transfected cells
T2 sequence (P30988 25-474): T1 sequence (P30988 25-474)
T2 sequence (O60896 24-148 partner): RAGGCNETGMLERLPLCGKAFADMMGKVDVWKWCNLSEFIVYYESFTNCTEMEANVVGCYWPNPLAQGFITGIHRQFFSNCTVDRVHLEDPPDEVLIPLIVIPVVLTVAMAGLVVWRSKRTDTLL
In words: Assay (II)a functional assay, human amylin receptor (CRE luciferase, BHK cells). The conditions noted are these: functional assay, human amylin receptor; read-out: hAmylin-R funct. EC50. The class given is cell-based.

Another data set concerns the target T3, human amylin receptor (Homo sapiens, UniProt O60896+P30988).
T3 construct: expressed in transfected cells
T3 sequence (P30988 25-474): T1 sequence (P30988 25-474)
T3 sequence (O60896 24-148 partner): T2 sequence (O60896 24-148 partner)
In words: Assay (V) binding to the human amylin receptor (SPA, 125I-rat amylin). The conditions noted are these: human amylin receptor membranes, SPA; read-out: hAmylin-R bind IC50. An outline of the steps: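 SPA competition binding on membranes from Amylin 3(a)/CRE-luc cells, 35 ng/μL membranes with 0.05 mg/well beads. Buffer 50 mM Hepes pH 7.4, 1 mM CaCl2, 5 mM MgCl2, 0.1% OA, 0.02% Tween20. IC50 from one-site competition fit as affinity measure.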

Numbered stars: 1 amine (or outer) side, 2 acyl side, 3 side chain; on linkers, the order of the positions; unused ones are H or OH. Bridge positions count the residues as written; N and C are the ends. Side chains are listed from the residue outwards. Peptide text beside a SMILES is read from it. * marks the point of attachment. C20 diacid = O=C(O)CCCCCCCCCCCCCCCCCCC(=O)*; γGlu = O=C(O)[C@H](CCC(=O)[*:2])N[*:1]; AEEA = NCCOCCOCC(=O)O

Broadly, the EC50 is the concentration that produces a half-maximal response. For orientation: IC50 means the concentration that inhibits the measured activity by half. With `CC[C@H](C)[C@H](NC(=O)[C@H](C)NC(=O)CNC(=O)[C@H](Cc1ccccc1)NC(=O)[C@H](CC(N)=O)NC(=O)[C@@H]1CCCN1C(=O)[C@H](CO)NC(=O)[C@H](CO)NC(=O)[C@H](Cc1c[nH]cn1)NC(=O)[C@H](CCCNC(=N)N)NC(=O)[C@H](CC(C)C)NC(=O)[C@H](Cc1ccccc1)NC(=O)[C@H](CO)NC(=O)[C@H](C)NC(=O)[C@H](CC(C)C)NC(=O)[C@H](CCCNC(=N)N)NC(=O)[C@H](CCC(N)=O)NC(=O)[C@@H](NC(=O)[C@H](C)NC(=O)[C@@H]1CSSC[C@H](NC(=O)[C@@H](N)CCCCNC(=O)COCCOCCNC(=O)CC[C@H](NC(=O)CCCCCCCCCCCCCCCCCCC(=O)O)C(=O)O)C(=O)N[C@@H](CC(N)=O)C(=O)N[C@@H]([C@@H](C)O)C(=O)N[C@@H](C)C(=O)N[C@@H]([C@@H](C)O)C(=O)N1)[C@@H](C)O)C(=O)N1CCC[C@H]1C(=O)N[C@@H](CO)C(=O)N[C@@H](CO)C(=O)N[C@H](C(=O)N1CCC[C@H]1C(=O)N[C@H](C(=O)NCC(=O)N[C@@H](CO)C(=O)N[C@@H](CC(N)=O)C(=O)N[C@H](C(=O)N[C@@H](Cc1ccc(O)cc1)C(N)=O)[C@@H](C)O)C(C)C)[C@@H](C)O` [Example 73] (H-K([AEEA-γGlu-C20 diacid])CNTATCATQRLASFLRHSSPNFGAIPSSTPVGSNTY-NH2; disulfide 2-7), in data set [1], the “ThT pH 4.0 recovery (%)” value is 1%. The EC50 in data set [2] was 0.961 nM; in data set [4] it was 0.085 nM. For the same compound, the IC50 in data set [3] is 5.38 nM; at human amylin receptor, 0.104 nM.

For the origin of these results see patent US8575091B1, “Amylin analogues and pharmaceutical compositions thereof” (Novo Nordisk A/S, priority 2012, dated 2013).
